Experiments:
Experiment in all cases: relative viability (nuclei count vs DMSO), 5 days (fraction); higher = more cells survive
[1] = compound: C1=CC2=C(C=CC(=C2)C=C3C(=O)NC(=NCC4=CC=CS4)S3)N=C1 [RO-3306] + COc1cc2c(Oc3ccc(NC(=O)C4(C(=O)Nc5ccc(F)cc5)CC4)cc3F)ccnc2cc1OCCCN1CCOCC1 [Foretinib] (partner 0.25 µM)
In short: (§1)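 Relative viability divides the nuclei count in treated wells by that in vehicle wells. Lung cancer cell lines were seeded in 1536-well plates, dosed by pin tool the next day, and fixed and stained after 5 days in one step with final 0.05% Triton X-100, 1% formaldehyde and 1 ug/ml Hoechst. Dosing was a single drug or a fixed anchor-drug dose plus five library-drug doses (not always all listed) in √10 steps, and values are medians of duplicate plates imaged at 4×.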

[2] = compound: O=S(=O)(c1ccccc1)N(CC(F)(F)F)c1ccc(C(O)(C(F)(F)F)C(F)(F)F)cc1 + C[C@@H](Oc1cc(-c2cnn(C3CCNCC3)c2)cnc1N)c1c(Cl)ccc(F)c1Cl [Crizotinib] (partner 1 µM)
In short: as §1

[3] = compound: C1=CC2=C(C=CC(=C2)C=C3C(=O)NC(=NCC4=CC=CS4)S3)N=C1 [RO-3306] + Nc1ncn([C@H]2C[C@H](O)[C@@H](CO)O2)c(=O)n1 [Decitabine] (partner 2 µM)
In short: as §1

[4] = compound: O=S(=O)(c1ccccc1)N(CC(F)(F)F)c1ccc(C(O)(C(F)(F)F)C(F)(F)F)cc1 + NC(=O)Nc1cc(-c2cccc(F)c2)sc1C(=O)N[C@H]1CCCNC1 [AZD7762] (partner 0.2 µM)
In short: as §1

[5] = compound: O=S(=O)(c1ccccc1)N(CC(F)(F)F)c1ccc(C(O)(C(F)(F)F)C(F)(F)F)cc1 + CCNC(=O)c1noc(-c2cc(C(C)C)c(O)cc2O)c1-c1ccc(CN2CCOCC2)cc1 [Luminespib] (partner 0.01 µM)
In short: as §1

Row | Cell Line | relative viability ([1]; first compound 0.01 µM) | relative viability ([1]; first compound 0.03162 µM) | relative viability ([1]; first compound 0.1 µM) | relative viability ([1]; first compound 0.3162 µM) | relative viability ([1]; first compound 1 µM) | relative viability ([2]; first compound 0.8 µM) | relative viability ([2]; first compound 2.53 µM) | relative viability ([2]; first compound 8 µM) | relative viability ([3]; first compound 0.01 µM) | relative viability ([3]; first compound 0.03162 µM) | relative viability ([3]; first compound 0.1 µM) | relative viability ([3]; first compound 0.3162 µM) | relative viability ([3]; first compound 1 µM) | relative viability ([4]; first compound 0.8 µM) | relative viability ([4]; first compound 2.53 µM) | relative viability ([4]; first compound 8 µM) | relative viability ([5]; first compound 0.8 µM) | relative viability ([5]; first compound 2.53 µM) | relative viability ([5]; first compound 8 µM)
1 | EBC-1 | 0.0936 | 0.118 | 0.101 | 0.121 | 0.0921 | 0.234 | 0.29 | 0.293 |  |  |  |  |  |  |  |  |  |  | 
2 | EKVX | 0.805 | 0.748 | 0.841 | 0.741 | 0.744 | 1.09 | 0.85 | 0.898 | 0.298 | 0.277 | 0.385 | 0.322 | 0.29 | 0.664 | 0.708 | 0.503 | 0.84 | 0.576 | 0.73
3 | EMC-BAC-2 | 0.977 | 0.892 | 0.976 | 1.03 | 1.05 | 0.844 | 0.731 | 0.577 | 1.1 | 0.915 | 0.963 | 0.954 | 0.972 | 0.486 | 1.09 | 1.05 | 1.28 | 1.18 | 1.17
4 | EPLC-272H | 0.723 | 0.541 | 0.598 | 0.683 | 0.533 | 1.24 | 0.742 | 0.841 | 0.367 |  | 0.335 | 0.324 | 0.355 | 0.226 | 0.203 | 0.203 | 0.166 | 0.497 | 0.265
5 | H3255 | 0.798 | 0.711 | 0.758 | 0.848 | 0.898 | 0.755 | 0.776 | 0.829 | 0.727 | 0.509 | 0.625 | 0.641 | 0.57 | 0.787 | 0.666 | 0.76 | 0.734 | 0.753 | 0.767
6 | HARA | 1.08 | 0.58 | 0.884 | 0.882 | 0.767 | 0.98 | 0.945 | 0.682 | 0.523 |  | 0.58 | 0.654 | 0.692 | 0.437 |  | 0.318 | 0.652 | 0.263 | 0.414
7 | HCC-15 | 1.19 | 0.954 | 0.963 | 1.01 | 0.93 | 0.867 | 0.766 | 0.676 | 0.606 | 0.547 | 0.563 | 0.662 | 0.552 | 1.18 | 1.17 | 1.16 | 0.299 | 0.233 | 0.245
8 | HCC-44 |  |  |  |  |  | 0.926 | 0.749 | 0.699 | 0.951 | 0.95 | 1.02 | 0.917 | 0.956 | 1.04 | 0.988 | 0.994 |  | 1.13 | 1.08
9 | HCC-78 | 0.487 | 0.568 | 0.595 | 0.564 | 0.573 | 0.375 | 0.285 | 0.334 | 0.674 | 0.597 | 0.657 | 0.661 | 0.692 | 0.647 | 0.552 | 0.535 |  |  | 

From the supplement of paper PMC10307832
